≈ marks a conversion by molar mass, not a printed value. Where a name gives a salt, the structure may show the parent alone.
Experiments:
[1] = tested on: E. coli biofilms; experiment: Biofilm growth assay (spreading biofilm on semi-solid agar), E. coli; format: cell-based; details: biofilm growth assay, overnight 37° C., vs negative controls, Tables 1-5; for IC85: Escherichia coli, read-out: E. coli: concentration that reduces the area of the spreading biofilm by greater than or equal to 85%
Procedure, shortened: (§1)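 Values are compound concentrations (μg/ml) that cut the spreading-biofilm zone area by ≥85% relative to negative controls after overnight 37 °C growth from 5 μL central inoculum. E. coli plates: LB, 0.6% agar, 0.5% glucose; P. aeruginosa plates: M8 agar plus 0.2% glucose, 100 μM CaCl2, 1 mM MgSO4, 0.5% Casamino acids.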

[2] = tested on: P. aeruginosa biofilms; experiment: Biofilm growth assay (spreading biofilm on semi-solid agar), P. aeruginosa; format: cell-based; details: biofilm growth assay, overnight 37° C., vs negative controls, Tables 1-5; for IC85: Pseudomonas aeruginosa, read-out: P. aeruginosa: concentration that reduces the area of the spreading biofilm by greater than or equal to 85%
Procedure, shortened: as §1

C[C@H]1[C@H](C)CC[C@]2(C(=O)O)CC[C@]3(C)C(=CCC4[C@@]5(C)Cc6c(n[nH]c6N)C(C)(C)[C@@H]5CC[C@]43C)[C@H]12 (stereo partly drawn) (as salt: ammonium) [Example 2, (4aS,6aS,6bR,13aR)-12-Amino-2,2,6a,6b,9,9,13a-heptamethyl-2,3,4,4a,5,6,6a,6b,7,8,8a,9,11,13,13a,13b,14,15b-octadecahydro-1H-chryseno[1,2-f]indazole-4-a-carboxylic acid]
melting point: 258 to 278 °C

CC1(C)CC[C@]2(C(=O)O)CC[C@]3(C)C(=C(c4coc(CN5CCNCC5)c4)CC4[C@@]5(C)Cc6c(n[nH]c6N)C(C)(C)C5CC[C@]43C)C2C1 (stereo partly drawn) [Example 39, (4aS,6aS,6bR,13aR)-12-Amino-2,2,6a,6b,9,9,13a-heptamethyl-15-(5-(piperazin-1-ylmethyl)furan-3-yl)-2,3,4,4a,5,6,6a,6b,7,8,8a,9,11,13,13a,13b,14,15b-octadecahydro-1H-chryseno[1,2-f]indazole-4-a-carboxylic acid]
E. coli: concentration that reduces the area of the spreading biofilm by greater than or equal to 85% [1]: 2 µg/mL | P. aeruginosa: concentration that reduces the area of the spreading biofilm by greater than or equal to 85% [2]: 1 µg/mL

CC1(C)CC[C@]2(C(=O)O)CC[C@]3(C)C(=C(c4ccoc4CN4CCCC4)CC4[C@@]5(C)Cc6c(n[nH]c6N)C(C)(C)C5CC[C@]43C)C2C1 (stereo partly drawn) [Example 37, (4aS,6aS,6bR,13aR)-12-Amino-2,2,6a,6b,9,9,13a-heptamethyl-15-(2-(pyrrolidin-1-ylmethyl)furan-3-yl)-2,3,4,4a,5,6,6a,6b,7,8,8a,9,11,13,13a,13b,14,15b-octadecahydro-1H-chryseno[1,2-f]indazole-4-a-carboxylic acid]
E. coli: concentration that reduces the area of the spreading biofilm by greater than or equal to 85% [1]: 1 µg/mL | P. aeruginosa: concentration that reduces the area of the spreading biofilm by greater than or equal to 85% [2]: >1 µg/mL

CC1(C)CC[C@]2(C(=O)Nc3cc(O)[nH]n3)CC[C@]3(C)C(=CCC4[C@@]5(C)Cc6c(n[nH]c6N)C(C)(C)C5CC[C@]43C)C2C1 (stereo partly drawn) [Compound 66, (4aS,6aS,6bR,13aR)-12-Amino-N-(5-hydroxy-1H-pyrazol-3-yl)-2,2,6a,6b,9,9,13a-heptamethyl-2,3,4,4a,5,6,6a,6b,7,8,8a,9,11,13,13a,13b,14,15b-octadecahydro-1H-chryseno[1,2-f]indazole-4-a-carboxamide]
IC85 [1]: 1 µg/mL (≈ 1.74 µM) | IC85 [2]: 0.25 µg/mL (≈ 0.435 µM)

CC1(C)CC[C@]2(c3cc(N)[nH]n3)CC[C@]3(C)C(=CCC4[C@@]5(C)Cc6c(n[nH]c6N)C(C)(C)C5CC[C@]43C)C2C1 (stereo partly drawn) [Compound 60, (4aS,6aS,6bR,13aR)-4-a-(5-Amino-1H-pyrazol-3-yl)-2,2,6a,6b,9,9,13a-heptamethyl-2,3,4,4a,5,6,6a,6b,7,8,8a,9,11,13,13a,13b,14,15b-octadecahydro-1H-chryseno[1,2-f]indazol-12-amine]
E. coli: concentration that reduces the area of the spreading biofilm by greater than or equal to 85% [1]: 1 µg/mL | P. aeruginosa: concentration that reduces the area of the spreading biofilm by greater than or equal to 85% [2]: 0.5 µg/mL

CC1(C)CC[C@]2(c3nnco3)CC[C@]3(C)C(=CCC4[C@@]5(C)Cc6c(n[nH]c6N)C(C)(C)C5CC[C@]43C)C2C1 (stereo partly drawn) [Compound 67, (4aS,6aS,6bR,13aR)-2,2,6a,6b,9,9,13a-Heptamethyl-4-a-(1,3,4-oxadiazol-2-yl)-2,3,4,4a,5,6,6a,6b,7,8,8a,9,11,13,13a,13b,14,15b-octadecahydro-1H-chryseno[1,2-f]indazol-12-amine]
E. coli: concentration that reduces the area of the spreading biofilm by greater than or equal to 85% [1]: 2 µg/mL | P. aeruginosa: concentration that reduces the area of the spreading biofilm by greater than or equal to 85% [2]: 1 µg/mL

Cn1cc2c(n1)C(C)(C)C1CC[C@]3(C)C(CC=C4C5CC(C)(C)CC[C@]5(C(=O)O)CC[C@]43C)[C@@]1(C)C2 (stereo partly shown) [E]
IC85 [1]: > 16 µg/mL | IC85 [2]: 2 µg/mL (≈ 4.06 µM)

CC1(C)CC[C@]2(C(=O)Nc3nnc(S)s3)CC[C@]3(C)C(=CCC4[C@@]5(C)Cc6c(n[nH]c6N)C(C)(C)C5CC[C@]43C)C2C1 (stereo partly drawn) [Compound 74, (4aS,6aS,6bR,13aR)-12-Amino-N-(5-mercapto-1,3,4-thiadiazol-2-yl)-2,2,6a,6b,9,9,13a-heptamethyl-2,3,4,4a,5,6,6a,6b,7,8,8a,9,11,13,13a,13b,14,15b-octadecahydro-1H-chryseno[1,2-f]indazole-4-a-carboxamide]
IC85 [1]: > 2 µg/mL | IC85 [2]: 1 µg/mL (≈ 1.64 µM)

CC1(C)CC[C@]2(C(=O)O)CC[C@]3(C)C(=C(c4ccc(N)nc4)CC4[C@@]5(C)Cc6c(n[nH]c6N)C(C)(C)[C@@H]5CC[C@]43C)[C@@H]2C1 (stereo partly drawn) [Example 41, (4aS,6aS,6bR,8aR,13aR,15bS)-12-Amino-15-(6-aminopyridin-3-yl)-2,2,6a,6b,9,9,13a-heptamethyl-2,3,4,4a,5,6,6a,6b,7,8,8a,9,11,13,13a,13b,14,15b-octadecahydro-1H-chryseno[1,2-f]indazole-4-a-carboxylic acid]
E. coli: concentration that reduces the area of the spreading biofilm by greater than or equal to 85% [1]: 2 µg/mL | P. aeruginosa: concentration that reduces the area of the spreading biofilm by greater than or equal to 85% [2]: 1 µg/mL

CN1CCN(c2c([C@]34CCC(C)(C)CC3C3=CCC5[C@@]6(C)Cc7c(n[nH]c7N)C(C)(C)C6CC[C@@]5(C)[C@]3(C)CC4)n[nH]c2O)CC1 (stereo partly drawn) [Compound 89, 3-((4aS,6aS,6bR,13aR)-12-Amino-2,2,6a,6b,9,9,13a-heptamethyl-2,3,4,4a,5,6,6a,6b,7,8,8a,9,11,13,13a,13b,14,15b-octadecahydro-1H-chryseno[1,2-f]indazol-4-a-yl)-4-(4-methylpiperazin-1-yl)-1H-pyrazol-5-ol]
E. coli: concentration that reduces the area of the spreading biofilm by greater than or equal to 85% [1]: 1 µg/mL | P. aeruginosa: concentration that reduces the area of the spreading biofilm by greater than or equal to 85% [2]: 1 µg/mL

CC1(C)CC[C@]2(C(=O)O)CC[C@]3(C)[C@H](C(=O)C=C4[C@@]5(C)C=C(C#N)C(=O)C(C)(C)[C@@H]5CC[C@]43C)[C@@H]2C1 [L]
IC85 [1]: > 16 µg/mL | IC85 [2]: > 16 µg/mL

CC1(C)CC[C@]2(C(=O)O)CC[C@]3(C)C(=CC[C@@H]4[C@@]5(C)Cc6c(noc6N)C(C)(C)[C@@H]5CC[C@]43C)[C@@H]2C1 [K]
IC85 [1]: > 8 µg/mL | IC85 [2]: > 8 µg/mL

CC1(C)CC[C@]2(C(=O)O)CC[C@]3(C)C(=C(c4ccc5[nH]ccc5c4)CC4[C@@]5(C)Cc6c(n[nH]c6N)C(C)(C)C5CC[C@]43C)C2C1 (stereo partly drawn) [Example 49, (4aS,6aS,6bR,13aR)-12-Amino-15-(1H-indol-5-yl)-2,2,6a,6b,9,9,13a-heptamethyl-2,3,4,4a,5,6,6a,6b,7,8,8a,9,11,13,13a,13b,14,15b-octadecahydro-1H-chryseno[1,2-f]indazole-4-a-carboxylic acid]
E. coli: concentration that reduces the area of the spreading biofilm by greater than or equal to 85% [1]: >1 µg/mL | P. aeruginosa: concentration that reduces the area of the spreading biofilm by greater than or equal to 85% [2]: 0.5 µg/mL

CC1(C)CC[C@]2(c3n[nH]c(O)c3CCO)CC[C@]3(C)C(=CCC4[C@@]5(C)Cc6c(n[nH]c6N)C(C)(C)C5CC[C@]43C)C2C1 (stereo partly drawn) [Compound 81, 3-((4aS,6aS,6bR,13aR)-12-Amino-2,2,6a,6b,9,9,13a-heptamethyl-2,3,4,4a,5,6,6a,6b,7,8,8a,9,11,13,13a,13b,14,15b-octadecahydro-1H-chryseno[1,2-f]indazol-4-a-yl)-4-(2-hydroxyethyl)-1H-pyrazol-5-ol]
E. coli: concentration that reduces the area of the spreading biofilm by greater than or equal to 85% [1]: 1 µg/mL | P. aeruginosa: concentration that reduces the area of the spreading biofilm by greater than or equal to 85% [2]: 0.5 µg/mL

Cc1c([C@]23CCC(C)(C)CC2C2=CCC4[C@@]5(C)Cc6c(n[nH]c6N)C(C)(C)C5CC[C@@]4(C)[C@]2(C)CC3)n[nH]c1O (stereo partly drawn) [Compound 82, 3-((4aS,6aS,6bR,13aR)-12-Amino-2,2,6a,6b,9,9,13a-heptamethyl-2,3,4,4a,5,6,6a,6b,7,8,8a,9,11,13,13a,13b,14,15b-octadecahydro-1H-chryseno[1,2-f]indazol-4-a-yl)-4-methyl-1H-pyrazol-5-ol]
E. coli: concentration that reduces the area of the spreading biofilm by greater than or equal to 85% [1]: 1 µg/mL | P. aeruginosa: concentration that reduces the area of the spreading biofilm by greater than or equal to 85% [2]: 0.5 µg/mL

CC1(C)CC[C@]2(C(=O)O)CC[C@]3(C)C(=C(c4cccc(N)c4)CC4[C@@]5(C)Cc6c(n[nH]c6N)C(C)(C)[C@@H]5CC[C@]43C)[C@@H]2C1 (stereo partly drawn) [Example 15, (4aS,6aS,6bR,8aR,13aR,15bS)-12-Amino-15-(3-aminophenyl)-2,2,6a,6b,9,9,13a-heptamethyl-2,3,4,4a,5,6,6a,6b,7,8,8a,9,11,13,13a,13b,14,15b-octadecahydro-1H-chryseno[1,2-f]indazole-4-a-carboxylic acid]
E. coli: concentration that reduces the area of the spreading biofilm by greater than or equal to 85% [1]: 1 µg/mL | P. aeruginosa: concentration that reduces the area of the spreading biofilm by greater than or equal to 85% [2]: 0.25 µg/mL

CC1(C)CC[C@]2(C(=O)O)CC[C@]3(C)C(=CCC4[C@@]5(C)Cc6c[nH]nc6C(C)(C)C5CC[C@]43C)C2C1 (stereo partly shown) [D]
IC85 [1]: 4 µg/mL (≈ 8.36 µM) | IC85 [2]: 1 µg/mL (≈ 2.09 µM)

Cc1nnc(S)n1NC(=O)[C@]12CCC(C)(C)CC1C1=CCC3[C@@]4(C)Cc5c(n[nH]c5N)C(C)(C)C4CC[C@@]3(C)[C@]1(C)CC2 (stereo partly drawn) [Compound 77, (4aS,6aS,6bR,13aR)-12-Amino-N-(3-mercapto-5-methyl-4H-1,2,4-triazol-4-yl)-2,2,6a,6b,9,9,13a-heptamethyl-2,3,4,4a,5,6,6a,6b,7,8,8a,9,11,13,13a,13b,14,15b-octadecahydro-1H-chryseno[1,2-f]indazole-4-a-carboxamide]
IC85 [1]: 2 µg/mL (≈ 3.3 µM) | IC85 [2]: 1 µg/mL (≈ 1.65 µM)

COc1ccc(C2=C3[C@@H]4CC(C)(C)CC[C@]4(C(=O)O)CC[C@@]3(C)[C@]3(C)CC[C@H]4C(C)(C)c5n[nH]c(N)c5C[C@]4(C)C3C2)cn1 (stereo partly drawn) [Example 42, (4aS,6aS,6bR,8aR,13aR,15bS)-12-Amino-15-(6-methoxypyridin-3-yl)-2,2,6a,6b,9,9,13a-heptamethyl-2,3,4,4a,5,6,6a,6b,7,8,8a,9,11,13,13a,13b,14,15b-octadecahydro-1H-chryseno[1,2-f]indazole-4-a-carboxylic acid]
E. coli: concentration that reduces the area of the spreading biofilm by greater than or equal to 85% [1]: 1 µg/mL | P. aeruginosa: concentration that reduces the area of the spreading biofilm by greater than or equal to 85% [2]: 0.25 µg/mL
